For 33 compounds, inhibition and IC50 results are on record in patent US10940139B2, “Compounds that interact with the Ras superfamily for the treatment of cancers, inflammatory diseases, rasopathies, and fibrotic disease” (Shy Therapeutics LLC, priority 2017, dated 2021).

Molecules are shown by their SMILES. Read-outs that look alike come from different tables or passages of the source.

Common to all, as to experiment: Ras GTP binding domain inhibition assay (labeled GTP)
Experiment [1] concerns the target KRas G12D/Q61H double mutant (Homo sapiens (Human), UniProt P01116, G12D/Q61H). As to conditions: for inhibition at 20 µM: 20 μM compound. The essentials:
(§1)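 Labelled-GTP binding: plate-captured His-KRas protein was pre-exposed to compound for 3 h at room temperature (single 20 μM point or dilution series, 1% DMSO, Tris pH 7.5/MgCl2/DTT buffer). Cy3- or Cy5-GTP was then added for 45 min. Washed wells were read for retained fluorescence to give inhibition or IC50.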

Experiment [2] concerns the target KRas G12C/Q61H double mutant (Homo sapiens (Human), UniProt P01116, G12C/Q61H). As to conditions: 20 μM compound. A digest of the protocol: as §1
In a further experiment the target is KRas Q61H mutant (Homo sapiens (Human), UniProt P01116, Q61H). The conditions noted are these: 20 μM compound. A digest of the protocol:
as §1

Where [3] appears, read: read-out: % Inhibition at 20 μM KRas G12D Q61H.
The mark [4] stands for this setting: read-out: % Inhibition at 20 μM KRas G12C Q61H.
Where [5] appears, read: read-out: % Inhibition at 20 μM KRas Q61H.
Setting [6] is: KRas G12D/Q61H double mutant, read-out: % Inhibition at 20 μM of K-Ras mutant and wild-type protein, KRas G12D Q61H.
The mark [7] stands for this setting: KRas G12C/Q61H double mutant, read-out: % Inhibition at 20 μM of K-Ras mutant and wild-type protein, KRas G12C Q61H.
[8] abbreviates: KRas Q61H, read-out: % Inhibition at 20 μM of K-Ras mutant and wild-type protein, KRas Q61H.

KRas G12D/Q61H double mutant, sequence (P01116-2 other isoform, or with tags, fused parts or gaps G12D/Q61H): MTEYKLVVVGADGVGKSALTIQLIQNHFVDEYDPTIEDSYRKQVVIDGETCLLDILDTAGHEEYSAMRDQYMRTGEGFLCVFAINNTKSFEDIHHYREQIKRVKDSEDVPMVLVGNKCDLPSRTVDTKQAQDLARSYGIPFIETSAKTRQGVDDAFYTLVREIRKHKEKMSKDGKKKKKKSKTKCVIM
KRas G12C/Q61H double mutant, sequence (P01116-2 other isoform, or with tags, fused parts or gaps G12C/Q61H): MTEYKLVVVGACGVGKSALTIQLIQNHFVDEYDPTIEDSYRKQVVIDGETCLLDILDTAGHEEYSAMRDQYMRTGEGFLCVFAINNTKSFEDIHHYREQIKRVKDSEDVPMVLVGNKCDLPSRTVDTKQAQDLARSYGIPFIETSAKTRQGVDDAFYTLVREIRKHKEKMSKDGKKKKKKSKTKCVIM
KRas Q61H mutant, sequence (P01116-2 other isoform, or with tags, fused parts or gaps Q61H): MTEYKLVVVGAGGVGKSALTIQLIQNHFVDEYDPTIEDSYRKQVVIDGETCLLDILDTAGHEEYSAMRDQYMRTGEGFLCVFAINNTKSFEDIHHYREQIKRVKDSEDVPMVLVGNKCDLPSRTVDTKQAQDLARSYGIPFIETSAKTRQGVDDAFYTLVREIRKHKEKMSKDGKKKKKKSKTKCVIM

A word on the inhibition: it is the percentage by which the read-out fell short of the control. On to `O=C(NCCc1ccncc1)c1csc2nc(-c3ccccn3)nc(N3CCOCC3)c12` [drawing 2779], for which the inhibition at 20 µM in experiment [1] (setting [3]) is 0%; in experiment [2] (setting [4]), 51 to 75%; at KRas Q61H mutant (setting [5]), 51 to 75%.
On to `Cn1cc(C2CN(C(=O)c3csc4c(O)nc(-c5ccccn5)nc34)CCN2)cn1` (stereo not shown) [drawing 2777], for which the inhibition at 20 µM lay in the range of 1 to 25% in experiment [1] (setting [3]), 51 to 75% in experiment [2] (setting [4]) and 51 to 75% on KRas Q61H mutant (setting [5]).
Consider `COc1ccc(N2CCN(C(=O)c3csc4c(O)nc(-c5ccccn5)nc34)CC2)c(OC)c1` [drawing 2759], for which the inhibition at 20 µM fell in the range of 25 to 50% in experiment [1] (setting [3]), 51 to 75% in experiment [2] (setting [4]) and 51 to 75% at KRas Q61H mutant (setting [5]).
For `Oc1nc(-c2ccccn2)nc2c(-c3cncc(F)c3)csc12` [drawing 3464], the inhibition at 20 µM (in experiment [1] (setting [6]); in experiment [2] (setting [7]); on KRas Q61H mutant (setting [8])) was 1 to 25% each time.
As to `Oc1nc(-c2ccccn2)nc2cc(-c3ccccc3Cl)sc12` [drawing 3556], the inhibition at 20 µM in experiment [1] (setting [6]) fell in the range of 1 to 25%; in experiment [2] (setting [7]), 25 to 50%; at KRas Q61H mutant (setting [8]), 51 to 75%.
Regarding `CC(C)(C)c1sc2c(O)nc(-c3ccccn3)nc2c1Br` [drawing 3554], the inhibition at 20 µM in experiment [1] (setting [6]) lay in the range of 25 to 50%; in experiment [2] (setting [7]), 25 to 50%; on KRas Q61H mutant (setting [8]), 51 to 75%.
Turning to `O=C(NCCc1cccnc1)c1csc2nc(-c3ccccn3)nc(N3CCOCC3)c12` [drawing 2744], the inhibition at 20 µM in experiment [1] (setting [3]) lay in the range of 1 to 25%; in experiment [2] (setting [4]), 25 to 50%; on KRas Q61H mutant (setting [5]), 51 to 75%.
For `Nc1nc(-c2ccccn2)nc2scc(C(=O)O)c12` [drawing 2906], the inhibition at 20 µM in experiment [1] (setting [3]) lay in the range of 25 to 50%; in experiment [2] (setting [4]), 51 to 75%; at KRas Q61H mutant (setting [5]), 51 to 75%.
For `Oc1nc(-c2ccccn2)nc2c3c(sc12)CNC3` [drawing 3477], the inhibition at 20 µM in experiment [1] (setting [6]) lay in the range of 51 to 75%; in experiment [2] (setting [7]) it was 76 to 100%; at KRas Q61H mutant (setting [8]), 76 to 100%.
As to `N#Cc1ccc(CCNC(=O)c2csc3nc(-c4ccccn4)nc(N4CCOCC4)c23)cc1` [drawing 2750], the inhibition at 20 µM (in experiment [1] (setting [3]); in experiment [2] (setting [4]); at KRas Q61H mutant (setting [5])) was 1 to 25% in each case.
As to `O=C(c1csc2c(O)nc(-c3ccccn3)nc12)N1CCOC(c2cccc(Cl)c2)C1` (stereo not shown) [drawing 2770], the values for the inhibition at 20 µM (in experiment [1] (setting [3]); in experiment [2] (setting [4]); at KRas Q61H mutant (setting [5])) were 1 to 25%, 25 to 50% and 51 to 75%, respectively.
Consider `N#Cc1ccc(COCC(=O)Nc2ccnc(-c3ccccn3)n2)cc1` [drawing 2796], for which the values for the inhibition at 20 µM (in experiment [1] (setting [3]); in experiment [2] (setting [4]); at KRas Q61H mutant (setting [5])) were 0%, 25 to 50% and 51 to 75%, respectively.
Take `Oc1nc(-c2ccccn2)nc2c(Br)c(-c3ccccc3)sc12` [drawing 3553]: the inhibition at 20 µM in experiment [1] (setting [6]) was 0%; in experiment [2] (setting [7]), 1 to 25%; on KRas Q61H mutant (setting [8]), 1 to 25%.
As for `Cn1ccnc1-c1nc(O)c2c(-c3ccccc3)c(-c3ccccc3)sc2n1` [drawing 3536], the inhibition at 20 µM (in experiment [1] (setting [6]); in experiment [2] (setting [7]); at KRas Q61H mutant (setting [8])) was 1 to 25% throughout.
In the case of `COC(=O)c1sc2c(O)nc(-c3ccccn3)nc2c1C` [drawing 3476], the inhibition at 20 µM was 25 to 50% in experiment [1] (setting [6]), 51 to 75% in experiment [2] (setting [7]) and 51 to 75% at KRas Q61H mutant (setting [8]).
Consider `O=C(NCCc1cncnc1)c1csc2nc(-c3ccccn3)nc(N3CCOCC3)c12` [drawing 2784], for which the inhibition at 20 µM in experiment [1] (setting [3]) was in the range of 1 to 25%; in experiment [2] (setting [4]), 25 to 50%; at KRas Q61H mutant (setting [5]), 25 to 50%.
On to `COc1ccnc(-c2nc(O)c3c(C#N)csc3n2)c1` [drawing 2782], for which the inhibition at 20 µM in experiment [1] (setting [3]) is 0%; in experiment [2] (setting [4]), 25 to 50%; on KRas Q61H mutant (setting [5]) it was 51 to 75%.
With `COc1ccc(CCNC(=O)c2csc3nc(-c4ccccn4)nc(N4CCOCC4)c23)cn1` [drawing 2745], the inhibition at 20 µM lay in the range of 25 to 50% in experiment [1] (setting [3]), 25 to 50% in experiment [2] (setting [4]) and 51 to 75% on KRas Q61H mutant (setting [5]).
`Oc1nc(-c2ccccn2)nc2c(CC3CNC3)csc12` [drawing 3519]: the inhibition at 20 µM in experiment [1] (setting [6]) was in the range of 25 to 50%; in experiment [2] (setting [7]), 51 to 75%; at KRas Q61H mutant (setting [8]), 51 to 75%.
`O=C(c1csc2c(O)nc(-c3ccccn3)nc12)N1CCNC(Cc2ccc(F)cc2)C1` (stereo not shown) [drawing 2831]: the inhibition at 20 µM (in experiment [1] (setting [3]); in experiment [2] (setting [4]); at KRas Q61H mutant (setting [5])) was 51 to 75% each time.
Take `COC(=O)c1csc2nc(-c3ccccn3)nc(N)c12` [drawing 2895]: the inhibition at 20 µM (in experiment [1] (setting [3]); in experiment [2] (setting [4]); at KRas Q61H mutant (setting [5])) was 25 to 50% each time.
On to `O=C(NCCc1ccc(O)c(O)c1)c1csc2nc(-c3ccccn3)nc(N3CCOCC3)c12` [drawing 2785], for which the inhibition at 20 µM in experiment [1] (setting [3]) was 0%; in experiment [2] (setting [4]) it was 25 to 50%; at KRas Q61H mutant (setting [5]), 1 to 25%.
`COc1cnc(C(C)(C)N)nc1O` [drawing 3491]: the inhibition at 20 µM in experiment [1] (setting [6]) was 1 to 25%; in experiment [2] (setting [7]), 1 to 25%; on KRas Q61H mutant (setting [8]), 0%.
`COc1cc(CCNC(=O)c2csc3nc(-c4ccccn4)nc(N4CCOCC4)c23)ccn1` [drawing 2747]: the inhibition at 20 µM in experiment [1] (setting [3]) was in the range of 1 to 25%; in experiment [2] (setting [4]) it was 25 to 50%; on KRas Q61H mutant (setting [5]), 25 to 50%.
In the case of `Oc1nc(-c2ccccn2)nc2cc(-c3ccc(-c4ccccc4)cc3)sc12` [drawing 3559], the inhibition at 20 µM (in experiment [1] (setting [6]); in experiment [2] (setting [7]); at KRas Q61H mutant (setting [8])) was 1 to 25% in each case.
On to `Oc1nc(-c2ccccn2)nc2c(-c3ccccc3)c(-c3ccncc3)sc12` [drawing 3548], for which the inhibition at 20 µM is 0% in experiment [1] (setting [6]), 0% in experiment [2] (setting [7]) and 51 to 75% on KRas Q61H mutant (setting [8]).
In the case of `COc1cnc(CNC(=O)c2cc3nc(-c4ccccn4)nc(O)c3s2)[nH]c1=O` [drawing 3521], the results for the inhibition at 20 µM (in experiment [1] (setting [6]); in experiment [2] (setting [7]); on KRas Q61H mutant (setting [8])) were 25 to 50%, 51 to 75% and 51 to 75%, respectively.
The term IC50 denotes the midpoint of a concentration-inhibition curve. Regarding `O=C(c1csc2c(O)nc(-c3ccccn3)nc12)N1CCOC(c2nccs2)C1` (stereo not shown) [drawing 2734], the inhibition at 20 µM fell in the range of 25 to 50% in experiment [1] (setting [3]), 51 to 75% in experiment [2] (setting [4]) and 51 to 75% on KRas Q61H mutant (setting [5]). In addition, the IC50 in experiment [1] (serial dilution, read-out: KRas G12D Q61H (classes E-H, IC50)) lay within 5 to 10 µM.
For `O=C(c1csc2c(O)nc(-c3ccccn3)nc12)N1CCOC(CN2CCOCC2)C1` (stereo not shown) [drawing 2805], the inhibition at 20 µM lay in the range of 1 to 25% in experiment [1] (setting [3]), 25 to 50% in experiment [2] (setting [4]) and 51 to 75% on KRas Q61H mutant (setting [5]).
Turning to `Nc1nc(-c2ccccn2)nc(C(=O)NCCc2ccncc2)c1Oc1ccccc1` [drawing 3551], the inhibition at 20 µM in experiment [1] (setting [6]) lay within 25 to 50%; in experiment [2] (setting [7]), 1 to 25%; at KRas Q61H mutant (setting [8]), 25 to 50%.
For `O=C(c1csc2c(O)nc(-c3ccccn3)nc12)N1CCNC(c2ccccc2F)C1` (stereo not shown) [drawing 2776], the figures for the inhibition at 20 µM (in experiment [1] (setting [3]); in experiment [2] (setting [4]); at KRas Q61H mutant (setting [5])) were 25 to 50%, 51 to 75% and 76 to 100%, respectively.
With `COc1ccccc1C1CN(C(=O)c2csc3c(O)nc(-c4ccccn4)nc23)CCN1` (stereo not shown) [drawing 2772], the figures for the inhibition at 20 µM (in experiment [1] (setting [3]); in experiment [2] (setting [4]); at KRas Q61H mutant (setting [5])) were 25 to 50%, 51 to 75% and 76 to 100%, respectively.
In the same order, the values of `N#Cc1ccc(N2CCN(C(=O)c3csc4c(O)nc(-c5ccccn5)nc34)CC2)cc1` [drawing 2756] are 0%, 51 to 75% and 51 to 75%.
